Laboratory results from patent US20260125382A1, “COMPOUNDS FOR INHIBITING OR DEGRADING CDK2 AND/OR CDK9 AND MEDICINAL USE THEREOF” (KOREA RESEARCH INSTITUTE OF CHEMICAL TECHNOLOGY, priority 2022, published 2026).

Legend:
CDK2 = molecular target: T1, CDK2 (Homo sapiens, UniProt P24941); assay: CDK protein degradation activity (Western blotting), CDK2; type: cell-based; conditions: MDA-MB-231 cells, 16 hours, Western blot
T1 construct: endogenous in cells; host or cells: MDA-MB-231
In short: (§1)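 Seed MDA-MB-231 cells; next day add compound to 100 nM, 1 μM or 10 μM final, or DMSO. After 16 h, harvest and lyse in Triton X-100 buffer, run SDS-PAGE, probe for CDK2, CDK9 and tubulin.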

CDK9 = molecular target: T2, CDK9 (Homo sapiens, UniProt P50750); assay: CDK protein degradation activity (Western blotting), CDK9; type: cell-based; conditions: MDA-MB-231 cells, 16 hours, Western blot
T2 construct: endogenous in cells; host or cells: MDA-MB-231
T2 sequence (P50750 whole entry): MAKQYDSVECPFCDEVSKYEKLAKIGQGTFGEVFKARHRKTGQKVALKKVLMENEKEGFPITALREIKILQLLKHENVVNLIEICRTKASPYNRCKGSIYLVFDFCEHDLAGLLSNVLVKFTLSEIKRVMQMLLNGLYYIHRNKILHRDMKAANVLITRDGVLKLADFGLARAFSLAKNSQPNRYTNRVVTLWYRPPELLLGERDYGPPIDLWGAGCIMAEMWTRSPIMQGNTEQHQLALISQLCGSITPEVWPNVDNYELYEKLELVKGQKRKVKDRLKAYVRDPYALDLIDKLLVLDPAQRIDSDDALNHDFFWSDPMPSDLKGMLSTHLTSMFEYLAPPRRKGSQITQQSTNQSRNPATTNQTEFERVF
In short: as §1

CDK2/cyclin A = molecular target: T3, CDK2/cyclin A (Homo sapiens, UniProt P24941); assay: CDK protein inhibition, KINOMEscan (Eurofins), CDK2/cyclin A; type: binding; conditions: for IC50: Table 17, unit inferred
T3 construct: purchased Eurofins Scientific

| Enzyme degradation CDK2 (% remaining) @ 0.1 μM (CDK2) | Enzyme degradation CDK2 (% remaining) @ 1 μM (CDK2) | Enzyme degradation CDK2 (% remaining) @ 10 μM (CDK2) | Enzyme degradation CDK9 (% remaining) @ 0.1 μM (CDK9) | Enzyme degradation CDK9 (% remaining) @ 1 μM (CDK9) | Enzyme degradation CDK9 (% remaining) @ 10 μM (CDK9) | CDK2/cyclin A inhibition (%) (at concentration of 1 μM) (CDK2/cyclin A) | IC50 (CDK2/cyclin A) [µM] | SMILES |
| --- | --- | --- | --- | --- | --- | --- | --- | --- |
| 100% | 100% | 40% | 80% | 50% | 10% | 84 | – | Cc1cccc(C(=O)N[C@H]2C[C@H](n3cnc4c(NCC5CCN(C(=O)CCCCCNC(=O)CNc6ccc7c(c6)C(=O)N([C@@H]6CCC(=O)NC6=O)C7=O)CC5)ncnc43)C2)n1 (stereo in doubt) [Compound 61, N-((1r,3r)-3-(6-(((1-(6-(2-((2-(2,6-dioxopiperidin-3-yl)-1,3-dioxoisoindolin-5-yl)amino)acetamido)hexanoyl)piperidin-4-yl)methyl)amino)-9H-purin-9-yl)cyclobutyl)-6-methylpicolinamide] |
| 100% | 50% | 20% | 30% | 10% | 0% | 87 | – | Cc1cccc(C(=O)N[C@H]2C[C@H](n3cnc4c(NCC5CCN(C(=O)CCCCCNc6ccc7c(c6)C(=O)N([C@@H]6CCC(=O)NC6=O)C7=O)CC5)ncnc43)C2)n1 [Compound 65, N-((1r,3r)-3-(6-(((1-(6-((2-(2,6-dioxopiperidin-3-yl)-1,3-dioxoisoindolin-5-yl)amino)hexanoyl)piperidin-4-yl)methyl)amino)-9H-purin-9-yl)cyclobutyl)-6-methylpicolinamide] |
| – | – | – | – | – | – | 78 | – | Cc1cccc(C(=O)NC2CC(n3cnc4c(NCC5CCN(C(=O)CCCCCNc6cccc7c6C(=O)N([C@@H]6CCC(=O)NC6=O)C7=O)CC5)ncnc43)C2)n1 (stereo partly shown) [Compound 66, N-((1r,3r)-3-(6-(((1-(6-((2-(2,6-dioxopiperidin-3-yl)-1,3-dioxoisoindolin-4-yl)amino)hexanoyl)piperidin-4-yl)methyl)amino)-9H-purin-9-yl)cyclobutyl)-6-methylpicolinamide] |
| 30% | 40% | 50% | 0/0/0% | 0/0/0% | 0/0/0% | – | > 10 | Cc1cccc(C(=O)N[C@H]2C[C@H](n3cnc4c(NCC5CCN(CC6CCN(C(=O)CNc7ccc8c(c7)C(=O)N(C7CCC(=O)NC7=O)C8=O)CC6)CC5)ncnc43)C2)n1 (stereo partly shown) [Compound 74, N-((1r,3r)-3-(6-(((1-((1-((2-(2,6-dioxopiperidin-3-yl)-1,3-dioxoisoindolin-5-yl)glycyl)piperidin-4-yl)methyl)piperidin-4-yl)methyl)amino)-9H-purin-9-yl)cyclobutyl)-6-methylpicolinamide] |
| 0/0/0% | 0/0/0% | 0/0/0% | 0/0/0% | 0/0/0% | 0/0/0% | – | 0.613 | Cc1cccc(C(=O)N[C@H]2C[C@@H](n3cnc4c(Nc5ccc(N6CCN(CC7CCN(C(=O)COc8cccc9c8C(=O)N(C8CCC(=O)NC8=O)C9=O)CC7)CC6)cc5)ncnc43)C2)n1 (stereo partly shown) [Compound 91, N-((1s,3s)-3-(6-((4-(4-((1-(2-((2-(2,6-dioxopiperidin-3-yl)-1,3-dioxoisoindolin-4-yl)oxy)acetyl)piperidin-4-yl)methyl)piperazin-1-yl)phenyl)amino)-9H-purin-9-yl)cyclobutyl)-6-methylpicolinamide] |
| 30% | 10% | 20% | 0/0/0% | 0/0/0% | 0/0/0% | – | 1.29 | Cc1cccc(C(=O)N[C@H]2C[C@@H](n3cnc4c(NCCC5CCN(CC6CCN(C(=O)CNc7ccc8c(c7)C(=O)N(C7CCC(=O)NC7=O)C8=O)CC6)CC5)ncnc43)C2)n1 (stereo partly shown) [Compound 125, N-((1s,3s)-3-(6-((2-(1-((1-((2-(2,6-dioxopiperidin-3-yl)-1,3-dioxoisoindolin-5-yl)glycyl)piperidin-4-yl)methyl)piperidin-4-yl)ethyl)amino)-9H-purin-9-yl)cyclobutyl)-6-methylpicolinamide] |
| 0/0/0% | 0/0/0% | 0/0/0% | 0/0/0% | 0/0/0% | 0/0/0% | – | 0.439 | O=C1CCC(N2C(=O)c3cccc(NCC(=O)N4CCC(CN5CCN(c6ccc(Nc7ncnc8c7ncn8[C@H]7C[C@@H](NC(=O)Cc8ccccc8)C7)cc6)CC5)CC4)c3C2=O)C(=O)N1 (stereo partly shown) [Compound 176, N-((1s,3s)-3-(6-((4-(4-((1-((2-(2,6-dioxopiperidin-3-yl)-1,3-dioxoisoindolin-4-yl)glycyl)piperidin-4-yl)methyl)piperazin-1-yl)phenyl)amino)-9H-purin-9-yl)cyclobutyl)-2-phenylacetamide] |
